Data reported in US11717536B2, “Treatment for periodontitis” (THE UNIVERSITY OF MELBOURNE, priority 2017, dated 2023).
“And” between values parts separate entries of the source, which are not always exact repeats. Equal entries are not always repeated. Marks after values point to notes of the source that are not given here.

What was measured:
[1] = tested on: enamel substratum of the polymicrobial biofilm caries model; assay: Enamel subsurface demineralization in the polymicrobial biofilm caries model (transverse microradiography); parameters: species or system human; conditions: for integrated mineral loss ΔZd / lesion depth LD: twice daily 10 min pulses, mean ± SD
Procedure: To model supragingival plaque six representative oral bacterial species, Streptococcus sanguinis (NCTC 7863), Streptococcus mutans Ingbritt, Actinomyces naeslundii (NCTC 10301), Veillonella parvula (ATCC 17745), Lactobacillus casei (NCDO 161) and Fusobacterium nucleatum (ATCC 10953) (Table 5) were cultured as a polymicrobial biofilm on a human enamel substratum in a constant-depth film fermenter (CDFF; Cardiff University, UK). The CDFF was housed in a 37° C. incubator under anaerobic conditions which were maintained by a constant flow of 5% CO2 in N2 at 1 L/h. The CDFF contained 15 removable polytetrafluoroethylene (PTFE) pans on a circular platform that was rotated at a constant speed of three rpm. The biofilms were grown on three enamel blocks (see below) in each PTFE pan using an artificial saliva medium (ASM, 2.5 g/L mucin type II (porcine, gastric, Sigma), 2.0 g/L bacteriological peptone (Oxoid), 2.0 g/L tryptone (Oxoid), 1.0 g/L yeast extract (Oxoid), 0.35 g/L NaCl, 0.2 g/L KCl, 0.2 mg/L vitamin K, 1 mg/L haemin and 0.1 g/L cysteine hydrochloride) at a constant flow rate of 30 mL/h. Prior to inoculation, the CDFF pan surfaces were conditioned for 24 h with ASM at a flow rate of 10 mL/h (McBain et al (2003) J Appl Microbiol. 94(4):655-66). In order to mimic in vivo bacterial growth conditions in the oral cavity with dietary sugar intake and to provide a high cariogenic challenge, a 1% (w/v) sucrose solution in ASM was pumped into the CDFF four times a day at four hourly intervals with a flow rate of 30 mL/h for 10 min.
Three treatments were applied to the polymicrobial biofilms: 290 ppm fluoride with 220 ppm fluoride as SnF2 and 70 ppm fluoride as NaF (referred to as SnF2), 2% CPP-ACP and 2% CPP-ACP-SnF2. These treatments were compared with the control in which the test solution was replaced with ASM. Each treatment was applied using two 10 min pulses of the test solution in ASM with a flow rate of 30 mL/h. The first pulse started 30 min prior to the first sucrose pulse of the morning and the second started 3 h 30 min after the final sucrose pulse of the day.
On day 6, 12 and 19 after inoculation four pans were removed aseptically from the CDFF and replaced with blank sterile pans. Enamel blocks from the pans were removed for bacterial enumeration and transverse microradiography.
Three hundred and sixty extracted human third molars were obtained under University of Melbourne ethics approval (HREC #1237616) and sterilized by exposure to 4.1 kGy of gamma radiation. Enamel blocks were cut from the teeth with approximately 6×3×3 mm dimensions using a water-cooled diamond blade saw (Minitom, Struers) and polished using a RotoPol/RotoForce lapping instrument with 1200, 2400, 4000 grit lapping papers (Struers) and 3 and 1 μm diamond polishing pastes (Struers). The blocks were positioned in custom made CDFF pans at a depth of 100 μm and sealed in place with yellow sticky wax (Kemdent) and sterilized by exposure to 4.1 kGy of gamma radiation.
Transverse microradiography was carried out essentially as described previously [Shen et al 2011]. […] The lesion depth (μm) was determined as the distance to the point at which the mineral content reaches 95% of the sound enamel value. The integrated mineral loss (IML), represented as ΔZd, was calculated by trapezoidal integration as the area between the sound-enamel densitometric profile and that of the demineralized enamel densitometric profile in vol % min·μm.

supragingival plaque = assay: Clinical trial: microbial composition of supragingival plaque (16S rRNA gene sequencing), whole community; assay type: in vivo, human
Source text: Following the completion of the examination and supragingival plaque collection, participants received a supragingival scaling, clean and prophylaxis of all their teeth. At the completion of the last examination for leg 3, each participant received a professional fluoride treatment.
Participants had all supragingival plaque collected from the buccal surfaces of their maxillary molars (teeth 17, 16, 26 & 27) with a sterile scaling instrument. The plaque samples from each tooth were placed in separate sterile tubes, to give four samples per participant.
Genomic DNA was extracted from the plaque using a combination of mechanical disruption of the cells via a Precellys homogeniser and the chemical extraction and purification of the genomic DNA via the PowerLyzer PowerSoil DNA Isolation Kit (MoBio). Quantitation of the extracted DNA was achieved using a Qubit dsDNA High Sensitivity Assay kit (ThermoFisher), before 5 ng DNA was used as template in a PCR reaction that amplified the V4 variable region of the 16S ribosomal RNA gene and individually barcoded the PCR product from each sample. The barcoded DNA was then sequenced using an Ion Torrent Personal Genome machine and Torrent Suite™ Software (ThermoFisher).
Analysis of the resulting sequence of the 16S ribosomal RNA gene enabled identification of the bacterial population present in each sample, down to the species level. […]
The individual 16S rDNA sequences produced for each sample were used to both classify the microbial lineages present (grouped as species level taxa) and determine the abundances of each taxon. Differences in the bacterial community over time was determined by measuring the changes in the relative taxon abundances for each individual.

Casein phosphopeptide-amorphous calcium phosphate [CPP-ACP]
integrated mineral loss ΔZd ([1]; Day 6): 572.9 ± 97.80 vol % min · μm | lesion depth LD ([1]; Day 6): 15.0 ± 2.1^a μm | integrated mineral loss ΔZd ([1]; Day 12): 1075.3 ± 148.0^ad vol % min · μm | lesion depth LD ([1]; Day 12): 26.3 ± 4.4^ade μm | integrated mineral loss ΔZd ([1]; Day 19): 2105.4 ± 346.2^bd vol % min · μm | lesion depth LD ([1]; Day 19): 52.3 ± 3.2^ad μm | rate of demineralization ([1]; between day 6 and day 19): 112.1 vol % min·μm/day | reduction in rate of demineralization relative to control ([1]; between day 6 and day 19, twice daily exposure): 50.2% and 50% | increases in commensal/beneficial species at the 56.4 mg dose compared with the 18.8 mg dose (supragingival plaque; 56.4 mg CPP-ACP gum, 20 min six times per day, 14 days): significantly greater | proportion of pathogenic species (pathobionts) (supragingival plaque; CPP-ACP gum, 14 days, vs no treatment): concomitant reduction | proportion of the health-associated symbionts (supragingival plaque; CPP-ACP treatment, randomised controlled clinical study): significant increase
